For 7 compounds, PR-4 growth, S-2 growth and growth results are on record in patent US20060263870A1, “Hydrocarbon processing method and hydrocarbon processing system” (NIHON UNIVERSITY, priority 2005, published 2006).

Common to all, as to type: cell-based
Assay [1] deals with Rhodococcus erythropolis PR-4. In words: Treatment of various hydrocarbons: growth and localization of PR-4 in organic solvent/IB medium bilayer culture. Conditions: hydrocarbon 5% (v/v) in IB medium, 28° C., 110 rpm, third day of culturing. How it is done:
(§1) IB liquid medium was prepared as shown below.
(§2) As n-alkanes, n-hexane (C6), n-octane (C8), n-nonane (C9), n-decane (C10), n-undecane (C11), n-dodecane (C12), n-tridecane (C13), n-tetradecane (C14), n-pentadecane (C15), n-hexadecane (C16), n-heptadecane (C17), and n-octadecane (C18) were used.
(§3) As test strains, Rhodococcus erythropolis PR-4 and Rhodococcus rhodochrous S-2 were used.
(§4) On the third day after the start of culturing, the growth status of the test bacteria and sites where the test bacteria had localized were observed. When the test bacteria were present in the organic solvent, they were labeled “inside” and when they were present on the surface of the organic solvent, they were labeled “surface.” The results are shown in Table 1.

Assay [2] concerns Rhodococcus rhodochrous S-2. The assay is described as follows: Treatment of various hydrocarbons: growth and localization of S-2 in organic solvent/IB medium bilayer culture. As to conditions: hydrocarbon 5% (v/v) in IB medium, 28° C., 110 rpm, third day of culturing. How it is done:
as §1, §2, §3, §4

Assay [3] deals with Rhodococcus erythropolis PR-4. The assay is described as follows: Investigation of Rhodococcus erythropolis PR-4 adaptation (two-stage culture with different hydrocarbons). Also on record: key: ±: growth is shown at interface of hydrocarbon and IB liquid culture medium; +: growth is shown in hydrocarbon. As to conditions: pristane (C19) into dodecane (C12): PR-4 first cultured 3 days with pristane, then with dodecane 5% (v/v); third day.

Regarding `CCCCCCCCCC` [n-decane], the PR-4 growth result in assay [1] is reported as “±”. The S-2 growth result in assay [2] was “−”.
On to `CCCCCCCCCCCC` [n-dodecane], for which the PR-4 growth result in assay [1] is given as “±”. For the same compound, the S-2 growth result in assay [2] is given as “−”. Further, in assay [3], the growth entry is recorded as “+”.
`CCCCCCCC` [n-octane]: in assay [1], the PR-4 growth entry was “−”. For the same compound, the S-2 growth result in assay [2] is recorded as “−”.
As for `CCCCCC` [n-hexane], the PR-4 growth result in assay [1] is “−”. Moreover, the S-2 growth result in assay [2] is “−”.
On to `CC(C)CCCC(C)CCCC(C)CCCCC(C)CCCC(C)CCCC(C)C` (stereo not drawn) [n-squalane, squalane], for which the PR-4 growth entry in assay [1] is “+”. In addition, the S-2 growth result in assay [2] is “±”.
`CCCCCCCCCCCCCCCC` [n-hexadecane]: in assay [1], the PR-4 growth result was “+”. Further, in assay [2], the S-2 growth entry is on record as “±”.
Turning to `CCCCCCCCCCCCCC` [n-tetradecane], the PR-4 growth result in assay [1] was “+”. Further, the S-2 growth entry in assay [2] is “±”.
